In ChEMBL document CHEMBL1201862, “PubChem BioAssay data set” (2004):
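How tested: cells in 96-well plates exposed to compound for 48 hours at five concentrations. At the GI50, growth is halved.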 The source made the active and inactive calls. No stated cut-off is given here; in the data, active = GI50 up to about 1.1 µM and inactive = higher. Where a SMILES comes first, the peptide text is derived from it. The star is where a group is joined. Boc = CC(C)(C)OC(=O)*; OBn = c1ccc(CO*)cc1

Key:
Assay in all cases: growth of human tumour cells (NCI), 48 h
[1] = test system: RPMI-8226
[2] = test system: TK-10
[3] = test system: HL-60
[4] = test system: CCRF-CEM
[5] = test system: Malme-3M
[6] = test system: HT-29
[7] = test system: BT-549
[8] = test system: EKVX
[9] = test system: HOP-92
[10] = test system: NCI-H522
[11] = test system: COLO 205
[12] = test system: NCI-H226
[13] = test system: UO-31
[14] = test system: NCI-H460
[15] = test system: OVCAR-8
[16] = test system: MOLT-4
[17] = test system: LOX IMVI
[18] = test system: OVCAR-4
[19] = test system: NCI-H23
[20] = test system: SNB-75

`O=C(C(Cl)=C(N1CCOCC1)N1CCOCC1)C(Cl)Cl` was tested, and the GI50 [1] was > 100 µM (inactive), the GI50 [2] was > 100 µM (inactive) and the GI50 [3] was > 100 µM (inactive). For the same compound, the GI50 [4] was 56.9 µM (inactive), the GI50 [5] was > 100 µM (inactive) and the GI50 [6] was > 100 µM (inactive). The GI50 [7] was > 100 µM (inactive), the GI50 [8] was > 100 µM (inactive) and the GI50 [9] was > 100 µM (inactive). The GI50 [10] was > 100 µM (inactive), the GI50 [11] was > 100 µM (inactive) and the GI50 [12] was > 100 µM (inactive). For the same compound, the GI50 [13] was > 100 µM (inactive), the GI50 [14] was > 100 µM (inactive) and the GI50 [15] was > 100 µM (inactive). The GI50 [16] was > 100 µM (inactive), the GI50 [17] was > 100 µM (inactive) and the GI50 [18] was > 100 µM (inactive). The GI50 [19] was > 100 µM (inactive).

In the case of `Cc1c(C)c(S(=O)(=O)N(CCCCCON)OCCCN)c(C)c2c1OC(C)(C)CC2`, the GI50 [1] is reported as 9.29 µM (inactive), the GI50 [2] is reported as 14.3 µM (inactive) and the GI50 [3] is reported as 5.74 µM (inactive). The GI50 [5] was 14.3 µM (inactive), the GI50 [6] was 9.89 µM (inactive) and the GI50 [7] was 15.5 µM (inactive). For the same compound, the GI50 [8] was 12.3 µM (inactive), the GI50 [9] was 10.3 µM (inactive) and the GI50 [20] was 14.3 µM (inactive). The GI50 [10] was 17.7 µM (inactive), the GI50 [11] was 3.48 µM (inactive) and the GI50 [12] was 17.9 µM (inactive). For the same compound, the GI50 [13] was 16.6 µM (inactive), the GI50 [14] was 9.93 µM (inactive) and the GI50 [15] was 11 µM (inactive). For the same compound, the GI50 [16] was 4.94 µM (inactive), the GI50 [17] was 9.73 µM (inactive) and the GI50 [18] was 7.5 µM (inactive). For the same compound, the GI50 [19] was 15.6 µM (inactive).

With `O=C(O)c1cccc(S(=O)(=O)NN2C(=O)CSC2c2ccc(Cl)cc2Cl)c1` (configuration not stated) the GI50 [1] was 97.3 µM (inactive), the GI50 [2] was > 100 µM (inactive) and the GI50 [3] was 12 µM (inactive). The GI50 [4] was 9.75 µM (inactive), the GI50 [5] was 82.4 µM (inactive) and the GI50 [6] was 32.5 µM (inactive). The GI50 [7] was 29.1 µM (inactive), the GI50 [8] was 68.5 µM (inactive) and the GI50 [9] was > 100 µM (inactive). For the same compound, the GI50 [20] was 30.2 µM (inactive), the GI50 [10] was 24.7 µM (inactive) and the GI50 [11] was > 100 µM (inactive). For the same compound, the GI50 [12] was 35.4 µM (inactive), the GI50 [13] was > 100 µM (inactive) and the GI50 [14] was 41.3 µM (inactive). For the same compound, the GI50 [15] was 15.4 µM (inactive), the GI50 [16] was 28.8 µM (inactive) and the GI50 [17] was 34.2 µM (inactive). The GI50 [19] was 40.2 µM (inactive).

In the case of `Cc1ccc(O)c(-c2cc(-c3ccccc3)nc(/N=C\c3ccccc3)n2)c1`, the GI50 [2] is reported as 97.1 µM (inactive), the GI50 [3] is reported as 35.2 µM (inactive) and the GI50 [4] is reported as 18.6 µM (inactive). The GI50 [5] was > 100 µM (inactive), the GI50 [6] was > 100 µM (inactive) and the GI50 [7] was 0.126 µM (active). For the same compound, the GI50 [8] was 47.8 µM (inactive), the GI50 [9] was 43.7 µM (inactive) and the GI50 [20] was 15.3 µM (inactive). For the same compound, the GI50 [10] was > 100 µM (inactive), the GI50 [12] was 30.3 µM (inactive) and the GI50 [13] was 2.94 µM (inactive). For the same compound, the GI50 [14] was 17.9 µM (inactive), the GI50 [15] was 20.4 µM (inactive) and the GI50 [16] was 18.2 µM (inactive). The GI50 [17] was 21.8 µM (inactive), the GI50 [18] was 31.4 µM (inactive) and the GI50 [19] was 24.4 µM (inactive).

With `CC1(C)O[C@@H](CP(c2ccccc2)c2ccccc2)[C@H](CP(c2ccccc2)c2ccccc2)O1` the GI50 [1] was 3.72 µM (inactive), the GI50 [2] was 14.2 µM (inactive) and the GI50 [4] was 2.4 µM (inactive). For the same compound, the GI50 [5] was 5.83 µM (inactive), the GI50 [6] was 0.675 µM (active) and the GI50 [7] was 2.96 µM (inactive). For the same compound, the GI50 [8] was 6.38 µM (inactive), the GI50 [9] was 8 µM (inactive) and the GI50 [20] was 6.55 µM (inactive). The GI50 [10] was 2.38 µM (inactive), the GI50 [11] was 0.632 µM (active) and the GI50 [12] was 6.52 µM (inactive). For the same compound, the GI50 [13] was > 10 µM (inactive), the GI50 [14] was 4.03 µM (inactive) and the GI50 [15] was 4.06 µM (inactive). For the same compound, the GI50 [16] was 2.69 µM (inactive), the GI50 [17] was 1.82 µM (inactive) and the GI50 [18] was 9.08 µM (inactive). The GI50 [19] was 1.53 µM (inactive).

`CC(NC(=O)C(Cc1ccccc1)NC(=O)C(Cc1ccccc1)NC(=O)OC(C)(C)C)C(=O)OCc1ccccc1` (stereo not drawn) (Boc-Phe-Phe-Ala-OBn; configuration not given here) was tested, and the GI50 [1] was 32.3 µM (inactive), the GI50 [2] was 76.2 µM (inactive) and the GI50 [3] was 31.8 µM (inactive). The GI50 [4] was 58.3 µM (inactive), the GI50 [5] was 93.1 µM (inactive) and the GI50 [6] was 75.9 µM (inactive). For the same compound, the GI50 [7] was > 100 µM (inactive), the GI50 [8] was > 100 µM (inactive) and the GI50 [9] was 20.4 µM (inactive). The GI50 [20] was 50.8 µM (inactive), the GI50 [10] was 68.1 µM (inactive) and the GI50 [11] was 65.3 µM (inactive). The GI50 [12] was 6.05 µM (inactive), the GI50 [13] was 27.7 µM (inactive) and the GI50 [14] was > 100 µM (inactive). For the same compound, the GI50 [15] was > 100 µM (inactive), the GI50 [16] was 54.7 µM (inactive) and the GI50 [17] was > 100 µM (inactive). The GI50 [19] was > 100 µM (inactive).

`O=c1oc2ccc([N+](=O)[O-])cc2cc1Br` was tested, and the GI50 [1] was 53.7 µM (inactive), the GI50 [2] was > 100 µM (inactive) and the GI50 [3] was 39 µM (inactive). For the same compound, the GI50 [4] was 57.5 µM (inactive), the GI50 [5] was > 100 µM (inactive) and the GI50 [6] was > 100 µM (inactive). For the same compound, the GI50 [7] was > 100 µM (inactive), the GI50 [8] was > 100 µM (inactive) and the GI50 [9] was 86.3 µM (inactive). For the same compound, the GI50 [10] was > 100 µM (inactive), the GI50 [11] was > 100 µM (inactive) and the GI50 [12] was > 100 µM (inactive). The GI50 [13] was > 100 µM (inactive), the GI50 [14] was > 100 µM (inactive) and the GI50 [15] was > 100 µM (inactive). The GI50 [16] was > 100 µM (inactive), the GI50 [17] was 61.2 µM (inactive) and the GI50 [18] was > 100 µM (inactive). The GI50 [19] was > 100 µM (inactive).
